Reference: patent EP2140864A2 (H. Lundbeck A/S, priority 2001, dated 2002)
Where two headings read alike, the source gives them in different places.

Assays:
human dopamine D1 = molecular target: T1, human dopamine D1 (Homo sapiens, UniProt P21728); test: Radioligand binding, dopamine D1 receptor
T1 construct: purchased BioSignal, Inc. (Montreal, Canada); host or cells: membranes of cells expressing the receptor
Excerpt: (§1) Other receptors: Cell membranes expressing human dopamine D1, D2, D4 and rat D3 receptors were purchased through BioSignal, Inc. (Montreal, Canada). Binding assays using the histamine H1 receptor; dopamine receptors; and α1A, α1E, and α2 adrenergic receptors may be carried out according to the procedures described in U.S. Patent No. 5,780,485, the disclosure of which is hereby incorporated by reference in its entirety into this application. Binding assays using the dopamine D5 receptor may be carried out according to the procedures described in U.S. Patent No. 5,882,855, the disclosure of which is hereby incorporated by reference in its entirety into this application. Binding assays for the human α1D adrenergic receptor may be carried out according to the procedures described in U.S. Patent No. 6,156,518, the disclosure of which is hereby incorporated by reference in its entirety into this application.
(§2) Binding data were analyzed using nonlinear regression and statistical techniques available in the GraphPAD Prism package (San Diego, CA). Enzymatic assay data were derived from a standard curve of reference compound data.

[1] = molecular target: T2, human α1D adrenergic receptor (Homo sapiens, UniProt P25100); test: Radioligand binding, α1D adrenergic receptor
T2 construct: expressed in transfected cells
T2 sequence (P25100 1-572): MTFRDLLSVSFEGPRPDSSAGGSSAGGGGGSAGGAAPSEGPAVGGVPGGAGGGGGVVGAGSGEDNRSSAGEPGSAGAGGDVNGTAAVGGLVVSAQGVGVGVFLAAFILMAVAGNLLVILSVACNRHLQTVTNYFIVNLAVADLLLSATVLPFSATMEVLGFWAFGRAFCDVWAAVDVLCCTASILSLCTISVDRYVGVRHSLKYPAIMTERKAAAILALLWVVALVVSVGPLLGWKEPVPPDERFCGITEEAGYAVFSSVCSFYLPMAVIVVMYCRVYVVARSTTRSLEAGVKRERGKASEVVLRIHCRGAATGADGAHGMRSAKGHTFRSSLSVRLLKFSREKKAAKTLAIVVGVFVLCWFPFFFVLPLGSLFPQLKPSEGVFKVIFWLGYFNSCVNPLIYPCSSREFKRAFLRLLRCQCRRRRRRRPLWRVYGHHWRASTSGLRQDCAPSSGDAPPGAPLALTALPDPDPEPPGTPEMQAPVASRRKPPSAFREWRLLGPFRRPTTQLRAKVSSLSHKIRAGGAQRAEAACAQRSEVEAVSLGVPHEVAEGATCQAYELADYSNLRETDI
Excerpt: as §1, §2

human dopamine D4 = molecular target: T3, human dopamine D4 (Homo sapiens, UniProt P21917); test: Radioligand binding, dopamine D4 receptor
T3 construct: purchased BioSignal, Inc. (Montreal, Canada)
T3 sequence (P21917 1-419): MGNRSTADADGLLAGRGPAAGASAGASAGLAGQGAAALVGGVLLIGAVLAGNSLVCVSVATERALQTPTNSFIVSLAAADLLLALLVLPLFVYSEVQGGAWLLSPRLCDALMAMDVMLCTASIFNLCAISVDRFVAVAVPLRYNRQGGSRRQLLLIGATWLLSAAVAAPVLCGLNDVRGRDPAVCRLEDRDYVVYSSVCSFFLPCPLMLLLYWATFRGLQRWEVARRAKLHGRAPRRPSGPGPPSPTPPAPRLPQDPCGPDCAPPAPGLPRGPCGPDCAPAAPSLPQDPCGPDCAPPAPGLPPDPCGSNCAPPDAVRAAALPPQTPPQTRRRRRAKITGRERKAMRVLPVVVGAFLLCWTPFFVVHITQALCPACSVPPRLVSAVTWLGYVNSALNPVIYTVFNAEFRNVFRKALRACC
Excerpt: as §1, §2

human GAL2 receptor = molecular target: T4, human GAL2 receptor (Homo sapiens, UniProt O43603); test: Radioligand binding at cloned human GAL2 receptor
T4 construct: expressed in transfected cells
T4 sequence (O43603 1-387): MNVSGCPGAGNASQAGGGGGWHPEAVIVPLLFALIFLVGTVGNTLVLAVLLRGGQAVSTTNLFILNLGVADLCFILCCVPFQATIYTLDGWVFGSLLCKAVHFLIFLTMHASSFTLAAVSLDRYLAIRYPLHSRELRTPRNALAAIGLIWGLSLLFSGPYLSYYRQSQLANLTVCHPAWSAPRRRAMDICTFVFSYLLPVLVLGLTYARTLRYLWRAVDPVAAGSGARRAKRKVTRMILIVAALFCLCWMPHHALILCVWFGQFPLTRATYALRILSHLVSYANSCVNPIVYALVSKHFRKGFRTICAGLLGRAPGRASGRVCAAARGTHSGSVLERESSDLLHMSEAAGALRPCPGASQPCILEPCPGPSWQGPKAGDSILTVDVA
Description: The binding properties of the pyrimidines of the present invention were evaluated at the cloned human galanin receptors, GAL1, GAL2, and GAL3, using protocols described herein.
The binding properties of the indolones of the present invention were evaluated at the cloned human galanin receptors, GAL1, GAL2, and GAL3, using protocols described herein.
LM(tk-) cells were stably transfected with the human GAL1 or GAL3 receptor. CHO cells were stably transfected with the human GAL2 receptor.
cDNAs for the human and rat GAL1, and human and rat GAL3 receptors were transfected with a G-418 resistant gene into the mouse fibroblast LM(tk-) cell line by a calcium phosphate transfection method (Cullen, 1987). Stably transfected cells were selected with G-418. Human and rat GAL2 receptors were similarly transfected into CHO cells.
Membranes were harvested from stably transfected LM(tk-) cells. Adherent cells were washed twice in ice-cold phosphate buffered saline (138 mM NaCl, 8.1 mM Na2HPO4, 2.5 mM KCl, 1.2 mM KH2PO4, 0.9 mM CaCl2, 0.5 mM MgCl2, pH 7.4) and lysed by sonication in ice-cold sonication buffer (20 mM Tris-HCl, 5 mM EDTA, pH 7.7). Large particles and debris were cleared by low speed centrifugation (200 x g, 5 min, 4°C). Membranes were collected from the supernatant fraction by centrifugation (32,000 x g, 18 min, 4°C), washed with ice-cold hypotonic buffer, and collected again by centrifugation (32,000 x g, 18 min, 4°C). The final membrane pellet was resuspended by sonication into a small volume of ice-cold binding buffer (-1 ml for every 5 plates: 10 mM NaCl, 20 mM HEPES, 0.22 mM KH2PO4, 1.26 mM CaCl2, 0.81 mM MgSO4, pH 7.4). Protein concentration was measured by the Bradford method (Bradford, 1976) using Bio-Rad Reagent, with bovine serum albumin as a standard. Membranes were held on ice for up to one hour and used fresh, or flash frozen and stored in liquid nitrogen. Membranes were prepared similarly from CHO cells.
Galanin Recentors: Binding assays were performed according to the following published methods: human GAL3 (PCT International Publication No. WO 98/15570), human GAL1 (PCT International Publication No. WO 95/2260), human GAL2 (PCT International Publication No. WO 97/26853).
as §2

[2] = Table 10; Ki hD1 divided by Ki hGAL3
[3] = Table 10; Ki hα1D divided by Ki hGAL3
[4] = Table 10; Ki hD4 divided by Ki hGAL3
[5] = pyrimidines, read-out: Ki GalR2

T1 sequence (P21728 whole entry): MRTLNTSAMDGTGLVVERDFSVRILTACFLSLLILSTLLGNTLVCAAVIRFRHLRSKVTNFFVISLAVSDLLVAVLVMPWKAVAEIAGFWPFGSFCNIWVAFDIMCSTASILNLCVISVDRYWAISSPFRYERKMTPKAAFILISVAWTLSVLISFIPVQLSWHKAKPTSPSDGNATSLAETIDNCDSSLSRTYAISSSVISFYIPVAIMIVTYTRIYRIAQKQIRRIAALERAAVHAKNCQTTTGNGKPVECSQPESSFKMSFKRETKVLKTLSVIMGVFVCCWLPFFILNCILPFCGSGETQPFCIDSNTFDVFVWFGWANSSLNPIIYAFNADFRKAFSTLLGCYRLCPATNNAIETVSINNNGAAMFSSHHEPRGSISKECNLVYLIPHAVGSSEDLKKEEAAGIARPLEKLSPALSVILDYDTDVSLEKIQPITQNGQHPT

Compound | Ki (human dopamine D1; Table 9; read-out: hD1 Ki) [nM] | selectivity ratio hD1 (human dopamine D1; [2]) | Ki ([1]; Table 9; read-out: hα1D Ki) [nM] | selectivity ratio hα1D [1, 3] | Ki (human dopamine D4; Table 9; read-out: hD4 Ki) [nM] | selectivity ratio hD4 (human dopamine D4; [4]) | Ki (human GAL2 receptor; [5]) [nM] | Ki (human dopamine D1; read-out: hD1 Ki; Table 9) [nM] | Ki ([1]; read-out: hα1D Ki; Table 9) [nM] | Ki (human dopamine D4; read-out: hD4 Ki; Table 9) [nM] | Ki (human GAL2 receptor; read-out: Ki GalR2, pyrimidines) [nM] | Ki (human GAL2 receptor; indolones, read-out: Ki GalR2) [nM]
Cc1ccc(Nc2cc(N3CCCCC3)nc(N(C)CCc3c[nH]c4ccccc34)n2)cc1 [Example 11] | 79 | 0.9 | 264 | 3 | 4830 | >30 | 681 | – | – | – | – | –
CN(CCc1c[nH]c2ccccc12)c1nc(Nc2ccc(F)c(F)c2)cc(N2CCCCC2)n1 [Example 15] | 344 | 5 | 480 | 7 | 13200 | >30 | 624 | – | – | – | – | –
COc1cccc(Nc2cc(N3CCCCC3)nc(N(C)CCc3c[nH]c4ccccc34)n2)c1 [Example 17] | 516 | 6 | 221 | 3 | 22200 | >100 | 2090 | – | – | – | – | –
Cc1ccc(Nc2cc(N3CCCCC3)nc(N(C)CCc3ccccc3)n2)cc1 [Example 22] | 128 | 5 | 368 | 13 | 11600 | >100 | 176 | – | – | – | – | –
Cc1ccc(Nc2cc(N3CCCCC3)nc(N3CCN(c4ncccc4C(F)(F)F)CC3)n2)cc1 [Example 34] | 290 | 13 | 1240 | >30 | 18700 | >100 | 168 | – | – | – | – | –
COC[C@@H]1[C@@H](c2ccccc2)OCCN1c1nc(Nc2ccc(C)cc2)cc(N2CCCCC2)n1 [Example 49] | – | 18 | – | 3 | – | >100 | – | 3780 | 678 | 45800 | 3270 | –
CN(C)c1cc(Nc2ccc(Cl)c(Cl)c2)nc(Nc2ccccc2)n1 [Example 60] | 600 | 7 | 4230 | >30 | 48800 | >100 | > 5000 | – | – | – | – | –
Cc1ccc(Nc2cc(N(C)C)nc(N(C)CCc3c[nH]c4ccccc34)n2)cc1 [Example 77] | 60 | 0.8 | 217 | 3 | 504 | 6 | 709 | – | – | – | – | –
O=C1C(=Nc2cccc(C(F)(F)F)c2)c2ccccc2N1c1ccccc1 [Example 92, 1-PHENYL-3- [[3-(TRIFLUOROMETHYL)PHENYL]IMINO]-1,3-DIHYDRO-2H-INDOL-2-ONE] | – | >100 | – | >100 | – | >100 | – | – | – | – | – | –
O=C1C(=Nc2cccc(Cl)c2)c2ccccc2N1c1ccccc1 [Example 94, 3-[(3-CHLOROPHENYL)IMINO]-1-PHENYL-1,3-DIHYDRO-2H-INDOL-2-ONE] | 2150 | >30 | 4030 | >30 | > 50000 | >100 | – | – | – | – | – | > 10000
O=C1C(=Nc2ccc(C(F)(F)F)cc2)c2ccccc2N1c1ccccc1 [Example 95, 1-PHENYL-3-[[4-(TRIFLUOROMETHYL)PHENYL]IMINO]-1,3-DIHYDRO-2H-INDOL-2-ONE] | 4390 | >100 | 3470 | >100 | > 50000 | >100 | – | – | – | – | – | > 10000
O=C1C(=Nc2ccc(Cl)cc2)c2ccccc2N1c1ccccc1 [Example 97, 3-[(4-CHLOROPHENYL)IMINO]-1-PHENYL-1,3-DIHYDRO-2H-INDOL-2-ONE] | 25100 | >100 | 6450 | >100 | > 50000 | >100 | – | – | – | – | – | > 10000
O=C1C(=Nc2ccc(Br)cc2)c2ccccc2N1c1ccccc1 [Example 98, 3-[(4-BROMOPHENYL)IMINO]-1-PHENYL-1,3-DIHYDRO-2H-INDOL-2-ONE] | 2520 | >30 | 1890 | >30 | > 50000 | >100 | – | – | – | – | – | > 10000
O=C1C(=Nc2cc(Cl)cc(Cl)c2)c2ccccc2N1c1ccccc1 [Example 103, 3-[(3,5-DICHLOROPHENYL)IMINO]-1-PHENYL-1,3-DIHYDRO-2H-INDOL-2-ONE] | – | – | – | – | – | – | – | – | – | – | – | > 10000
